Experimental findings from patent US20080182859A1 (Curis, Inc., priority 2006, published 2008) are described below.

Assay [1] relates to C57BL/6 male mice. The assay can be described thus: C57BL/6 hair growth after topical dosing. Type of assay: in vivo, mouse. Particulars: shaved lower back, dosed topically once, visually graded for melanogenesis and hair regrowth. Here is the method:
(§1) A mouse model of male pattern baldness is used to investigate the effectiveness of the present compounds for growing hair. Agonists for the sonic hedgehog pathway that act by binding and activating Smoothened were tested in a formulation of 50:30:20 PG:EtOH:water or 5:95 DMSO:acetone vehicle. C57BL/6 male mice (48-52 days old on arrival) from Charles River Labs were used on the study. The mice were housed and cared for according to established procedures. Food and water were ad libitum. On Day 0, the mice were shaved on their lower back, an area of ˜1.5 inches x ˜2 inches with Wahl clippers using a surgical blade. On day −3, the mice were anesthetized with isoflurane, their back was rinsed with a pad of 70% ethanol, a placebo pellet or a DHT pellet (2.5 mg 21 day pellet) were implanted subcutaneously between the shoulder blades with a 10 gauge trochar. DHT pellet transplantation results in maintenance of existing hair follicles in the resting (telogen) phase. The hole was stapled with a sterile autoclip and the mice were returned to their cage after awaking. The mice were dosed topically once and visually graded daily, except weekends, for melanogenesis and hair regrowth of fur in the dosed area (Table 4).

The subject of assay [2] is C57BL/6 male mice. The assay can be described thus: DHT-induced alopecia (mouse model of male pattern baldness). It is filed as in vivo. Particulars: C57BL/6 male mice with subcutaneous DHT pellet (2.5 mg 21 day), dosed topically once, visually graded for hair regrowth. As for the experimental part:
as §1
In the absence of treatment with the present compounds, the follicles remain in telogen rather than following the normal time course of the mouse hair cycle.

On to `CN[C@H]1CC[C@H](N(Cc2cc(-c3ccccc3)ccc2OC)C(=O)c2sc3ccccc3c2Cl)CC1`, for which the “C57BL/6 Hair Growth” value in the assay with C57BL/6 male mice [1] was “yes”. Further, in the assay on C57BL/6 male mice [2], the “Androgenetic Alopecia” value is reported as “yes”.

With `CN[C@H]1CC[C@H](N(Cc2cc(-c3cc(C)nc(C)c3)ccc2OC)C(=O)c2sc3ccccc3c2Cl)CC1`, the “C57BL/6 Hair Growth” value in the assay with C57BL/6 male mice [1] is “yes”. For the same compound, the “Androgenetic Alopecia” value with C57BL/6 male mice [2] was “yes”.

Take `CN[C@H]1CC[C@H](N(Cc2cc(-c3ccc(C(N)=O)cc3)ccc2OC)C(=O)c2sc3c(F)ccc(F)c3c2Cl)CC1`: in the assay on C57BL/6 male mice [1], the “C57BL/6 Hair Growth” value was “yes”. Besides, the “Androgenetic Alopecia” value in the assay on C57BL/6 male mice [2] was “yes”.

For `CN[C@H]1CC[C@H](N(Cc2cc(-c3ccnc(C(=O)OC)c3)ccc2OC)C(=O)c2sc3c(F)ccc(F)c3c2Cl)CC1` [drawing 714], the “C57BL/6 Hair Growth” value in the assay on C57BL/6 male mice [1] was “yes”. Besides, the “Androgenetic Alopecia” value with C57BL/6 male mice [2] is on record as “yes”.
